Structures are written as SMILES.

Sequence of HPK1 (Q92918 1-346 limits assumed): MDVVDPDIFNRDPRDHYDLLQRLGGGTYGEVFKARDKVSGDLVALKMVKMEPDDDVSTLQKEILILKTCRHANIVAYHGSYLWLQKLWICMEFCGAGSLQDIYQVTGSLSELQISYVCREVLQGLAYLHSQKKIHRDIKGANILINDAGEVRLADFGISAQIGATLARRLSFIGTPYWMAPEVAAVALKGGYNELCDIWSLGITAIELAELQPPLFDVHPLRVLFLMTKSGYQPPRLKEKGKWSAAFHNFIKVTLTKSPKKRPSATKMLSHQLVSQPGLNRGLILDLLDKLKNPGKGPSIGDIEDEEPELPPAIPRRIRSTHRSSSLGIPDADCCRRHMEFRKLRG

The test concerns the target HPK1 (Homo sapiens (Human), UniProt Q92918). Description: HPK1 Lantha binding assay ("Lanth"). The note with it: binding assays; Morrison Ki fit. Here is the method:
Example B2: HPK1 Lantha Binding Assay (“Lanth”)
Procedure: I. Compound Dilution:
The compounds to be tested were diluted by preparing 12.5 uL/well of 5 mM compound (100×) in columns 2 and 13 and 10 ul/well of DMSO in columns 3-12, 14-23, and wells A1-H1 and I24-P24 of the compound plate using a Bravo liquid handling platform. For the reference compound, the top concentration was 1 mM. To the plate was added 10 ul 2 mM staurosporine in wells J1-P1 and A24-H24. A 11 point 5-fold compound serial dilution was performed using the Bravo liquid handling platform. From the plate were transferred 2.5 ul of the solutions from column 2 and column 13 to the 10 ul of DMSO in columns 3 and 14 & so on. The compound plate was centrifuged at 2500 rpm for 1 min. From the compound plate was transferred 80 nl of the compounds into an assay plate using the Echo liquid handler system. One compound plate makes two assay plates. Each assay plate is sealed and stored in an N2 cabinet.
The following assay concentrations and times were used: 2 nM HPK1, 2 nM Eu-Anti-GST Ab, and 15 nM Tracer222, with 60 min incubation time.
III. HPK Lantha Binding Assay:
For the binding assay, 4 ul 2×HPK1 and Eu-anti-GST antibody were added to each well of the assay plate using a Multidrop reagent dispenser. The solutions were incubated in a 23 C incubator for 1 h. To each well of the assay plate was added 4 ul 2× Tracer-222 using a Multidrop reagent dispenser. The solutions were again incubated in a 23 C incubator for 1 h. The results of the assay were read using an Envision plate reader with the following parameters: TR_FRET, 340 ex/615 and 665em; 100 usec Delay; and 200 usec integration.
Compound Ki was analyzed using Morrison ki fit model in XL-fit • a. fit=(1−((((E+x)+(Ki*(1+(S/Kd))))−(((((E+x)+(Ki*(1+(S/Kd))))^2)−((4*E)*x))^0.5))/(2*E))) • res=(y−fit) • b. Parameters: • E=enzyme concentration • S=Tracer222 concentration, Kd=Tracer222 Kd • All measurements reported using the same units (uM)
Exemplary compounds were tested in the binding assays.
Consider `Cc1cnn([C@H]2CC[C@@]3(CNc4ncc(-c5ccc(N)c(C(=O)N(C)C)c5F)c(Cl)c43)C2)c1` (relative stereo) [Compound 125a, 6-Amino-3-((1R,3S)-4′-chloro-3-(4-methyl-1H-pyrazol-1-yl)-1′,2′-dihydrospiro[cyclopentane-1,3′-pyrrolo[2,3-b]pyridin]-5′-yl)-2-fluoro-N,N-dimethylbenzamide], for which the Ki (usually a dissociation constant, usually derived from enzyme kinetics or from competition with a known ligand) was 3.56 nM. On to `CN(C)C(=O)c1c(N)ccc(-c2cnc3c(c2Cl)[C@]2(CC[C@H](n4cccn4)C2)CN3)c1F` (relative stereo) [Compound 126a, 6-Amino-3-((1R,3S)-4′-chloro-3-(1H-pyrazol-1-yl)-1′,2′-dihydrospiro[cyclopentane-1,3′-pyrrolo[2,3-b]pyridin]-5′-yl)-2-fluoro-N,N-dimethylbenzamide], for which the Ki turned out to be 18.5 nM. For `CN(C)C(=O)c1c(N)ccc(-c2cnc3c(c2Cl)[C@]2(CC[C@H](CN)C2)CN3)c1F` (relative stereo) [Compound 127a, 6-Amino-3-((1R,3S)-3-(aminomethyl)-4′-chloro-1′,2′-dihydrospiro[cyclopentane-1,3′-pyrrolo[2,3-b]pyridin]-5′-yl)-2-fluoro-N,N-dimethylbenzamide] the value was 165 nM; for `CN(C)C(=O)c1c(N)ccc(-c2cnc3c(c2Cl)[C@]2(CC[C@](C)(C(N)=O)C2)CN3)c1F` (relative stereo) [Compound 132a, (1R,3S)-5′-(4-Amino-3-(dimethylcarbamoyl)-2-fluorophenyl)-4′-chloro-3-methyl-1′,2′-dihydrospiro[cyclopentane-1,3′-pyrrolo[2,3-b]pyridine]-3-carboxamide], 2.08 nM. On to `CN(C)C(=O)c1c(N)ccc(-c2cnc3c(c2Cl)[C@]2(CC[C@H](n4ccc(N)n4)C2)CN3)c1F` (relative stereo) [Compound 133a, 6-Amino-3-((1R,3S)-3-(3-amino-1H-pyrazol-1-yl)-4′-chloro-1′,2′-dihydrospiro[cyclopentane-1,3′-pyrrolo[2,3-b]pyridin]-5′-yl)-2-fluoro-N,N-dimethylbenzamide], for which the Ki is 34 nM. With `CN(C)C(=O)c1c(N)ccc(-c2cnc3c(c2Cl)[C@]2(CC[C@H](n4nccc4N)C2)CN3)c1F` (relative stereo) [Compound 134a, 6-Amino-3-((1R,3S)-3-(5-amino-1H-pyrazol-1-yl)-4′-chloro-1′,2′-dihydrospiro[cyclopentane-1,3′-pyrrolo[2,3-b]pyridin]-5′-yl)-2-fluoro-N,N-dimethylbenzamide] the figure was 16.1 nM; with `CN(C)C(=O)c1c(N)ccc(-c2cnc3c(c2Cl)[C@]2(CC[C@H](CC(N)=O)C2)CN3)c1F` (relative stereo) [Compound 135a, 6-Amino-3-((1R,3S)-3-(2-amino-2-oxoethyl)-4′-chloro-1′,2′-dihydrospiro[cyclopentane-1,3′-pyrrolo[2,3-b]pyridin]-5′-yl)-2-fluoro-N,N-dimethylbenzamide], 7.16 nM; with `CC[C@H]1C[C@@]12CNc1ncc(-c3ccc(N)c(C(=O)N(C)C)c3F)c(Cl)c12` (relative stereo) [Compound 150a, 6-Amino-3-((1R,2S)-4′-chloro-2-ethyl-1′,2′-dihydrospiro[cyclopropane-1,3′-pyrrolo[2,3-b]pyridin]-5′-yl)-2-fluoro-N,N-dimethylbenzamide], 3.3 nM.

Compound `CC[C@@H]1C[C@@]12CNc1ncc(-c3ccc(N)c(C(=O)N(C)C)c3F)c(Cl)c12` (relative stereo) [Compound 150c, 6-Amino-3-((1R,2R)-4′-chloro-2-ethyl-1′,2′-dihydrospiro[cyclopropane-1,3′-pyrrolo[2,3-b]pyridin]-5′-yl)-2-fluoro-N,N-dimethylbenzamide] registered a Ki of 2.51 nM. Consider `CN(C)C(=O)c1c(N)ccc(-c2cnc3c(c2Cl)[C@]2(CC[C@@](C)(C#N)C2)CN3)c1F` (relative stereo) [Compound 151a, 6-Amino-3-((1R,3R)-4′-chloro-3-cyano-3-methyl-1′,2′-dihydrospiro[cyclopentane-1,3′-pyrrolo[2,3-b]pyridin]-5′-yl)-2-fluoro-N,N-dimethylbenzamide], for which affinity was put at a Ki of 42 nM.
